Experimental data from PubChem BioAssay (NCI).
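1) Cells in 96-well plates. 2) Compound, 48 h, 5 concentrations. 3) Linear interpolation between surrounding doses. 4) Unreached endpoint = highest concentration. GI50 is the concentration that inhibits growth by half. TGI: concentration producing complete growth inhibition.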

Tests used:
Test in all cases: DTP human tumour cell line panel, 48 h
SK-MEL-5 melanoma = system: SK-MEL-5 melanoma
MALME-3M melanoma = system: MALME-3M melanoma
MCF7 breast = system: MCF7 breast
A549 NSCLC = system: A549 NSCLC
HCT-15 colon = system: HCT-15 colon
OVCAR-3 ovarian = system: OVCAR-3 ovarian
HT29 colon = system: HT29 colon
SF-295 CNS = system: SF-295 CNS
SN12C renal = system: SN12C renal
MDA-MB-435 = system: MDA-MB-435

SMILES	GI50 (SK-MEL-5 melanoma) [µM]	TGI (SK-MEL-5 melanoma) [µM]	GI50 (MALME-3M melanoma) [µM]	TGI (MALME-3M melanoma) [µM]	GI50 (MCF7 breast) [µM]	TGI (MCF7 breast) [µM]	GI50 (A549 NSCLC) [µM]	TGI (A549 NSCLC) [µM]	GI50 (HCT-15 colon) [µM]	TGI (HCT-15 colon) [µM]	GI50 (OVCAR-3 ovarian) [µM]	TGI (OVCAR-3 ovarian) [µM]	GI50 (HT29 colon) [µM]	TGI (HT29 colon) [µM]	GI50 (SF-295 CNS) [µM]	TGI (SF-295 CNS) [µM]	GI50 (SN12C renal) [µM]	TGI (SN12C renal) [µM]	TGI (MDA-MB-435) [µM]	GI50 (MDA-MB-435) [µM]
COC(=O)[C@]12CC[C@@H](C)[C@H](C)[C@@H]1C1=CC[C@@H]3[C@@]4(C)C(C=O)=C[C@@](C)(COC(=O)c5ccco5)[C@@H]4[C@H](O)C[C@@]3(C)[C@]1(C)CC2	0.453	1.65	0.224	1.17	2.31	9.86	3.51	16.2	1.51	3.09	1.87	3.73	1.81	4.14	1.95	4.69	3.44	83.2		
Cc1c2c(C(N)=O)nccc2c(C)c2c1c1ccccc1n2Cc1ccccc1		67.5				> 100		35.4		44.2		21.1		37.1		31.2		44.8	> 100	
C1=NC(N(Cc2ccccc2)Cc2ccccc2)N(Cc2ccccc2)N1 (configuration not stated)		27.3		25.8				37.3		34.4		27.3		30.9		29.6		34.1		
COc1cc(/C=N\O[Si](C)(C)C(C)(C)C)ccc1O[Si](C)(C)C(C)(C)C		> 100		> 100				> 100		82.3		54.1		> 100		> 100		> 100		
CCOC(=O)C(C)(c1c(C)[nH]c2ccccc12)c1c(C)[nH]c2ccccc12		31.1		43				49.7		32.5		34		30.3		29				
CC(=O)[CH-]C(=O)c1ccccc1.CC(=O)[CH-]C(=O)c1ccccc1.O=S(=O)([O-])c1cc([O-])c2c([O-])cc(S(=O)(=O)[O-])cc2c1.[Na+].[Ti+4]	> 100	> 100	84.5	> 100			> 100	> 100	> 100	> 100	> 100	> 100	> 100	> 100	55.7	> 100	> 100	> 100		
CCCCCCCCCCCCCCCCCCC1=C(O)C(=O)C=C(OC)C1=O		> 100		> 100				> 100		97.5		> 100		> 100		> 100		> 100		
COC(=O)c1c[nH]cc1CCCCc1c[nH]cc1C(=O)OC				> 100				> 100				> 100		> 100		> 100		> 100		
NC(=O)c1cn(Cc2ccccc2)c(=O)n1Cc1ccccc1		> 100						> 100		> 100		> 100		> 100		> 100		> 100		
CC(C)(C)OC(=O)N1C2CCCC23O[C@@H]1c1cc2c(cc1C3=O)OCO2 (some centres not stated)		26.1		> 100				> 100				40.2		> 100		82.9		> 100		
Cc1ccc(C)c(N2C(=O)C(=O)C(c3nc4ccccc4o3)/C(=N\NC(=O)c3ccccc3O)C2=O)c1 (configuration not stated)		> 100		> 100				> 100		> 100		63		> 100		> 100		> 100		
NCCCOc1cc2ccccc2cc1C(=O)NCCCOc1cc2ccccc2cc1C(=O)Nc1ccc(Cl)cc1O	1.36	2.8	1.48	3.5	0.183	0.349	0.198	0.383	0.658	2.32	1.81	3.49	0.411	1.61			1.73	3.83	2.6	0.899
O=C1c2ccccc2C(=O)N1C/C=N/NS(=O)(=O)c1ccc(Br)cc1		> 100		> 100				> 100		> 100		> 100		> 100		> 100		> 100		
Cc1c(Cl)cccc1NC(=O)c1cccc([N+](=O)[O-])c1O		15.5		38.7				> 72.1		> 100		51.4		82		65		97.4		
COc1cc(-c2nnc3n2NC=C(C(=O)O)S3)cc(OC)c1OC		> 100		> 100				> 100		> 67.5		> 100		> 100		> 100		> 100		
C[P+](C)(C)c1ccccc1		> 100		> 100				> 100		> 100		> 100		> 100		> 100		> 100		
COc1cc2c(cc1OC)C1Cc3cc(OC)c(OC)cc3N1CC2 (configuration not stated)				54.4				79.9				> 100		> 100		> 100		> 100		
C1COCCSC2=C(SCCO1)SC(=C1SC3=C(SCCOCCOCCS3)S1)S2		> 100		> 100				> 100		> 100		> 100		> 100		> 100		> 100		
CCC[CH2][Sn]1([CH2]CCC)[O]CC(COc2c(Cl)cc(Cl)cc2Cl)[O]1 (configuration not stated)			1.06	2.34			5.15	17.7	1.66	3.31	1.65	3.03	2.09	4.19	1.9	3.37	1.75	3.27		
O=C1C=CC(=CC=C2C=CN(CCCCCCCCCCC(=O)NCCCCCCCCCCCC(=O)O)C=C2)C=C1		> 100		> 100				> 100		> 100		> 100		> 100		> 100		> 100		
Cc1cc(NCCCCNc2ccnc3cc(Cl)ccc23)nc(Nc2ccc(C(=O)N3CCCCC3)cc2)n1	1.7	3.07			1.48	4.34	2.51	5.47	1.28	3.13	1.7	3.44	1.78	4.62	1.67	3.25			3.42	1.82
NC(CCc1ncc(C(=O)O)s1)C(=O)O (configuration not stated)		> 100		> 100				> 100		> 100		> 100		> 100		> 100		> 100		
